Columns and labels:
Details in all cases: averaged IC50
[1] = biological target: His-tagged recombinant human AXL cytoplasmic domain (Homo sapiens (Human), UniProt P30530); assay: AXL Enzyme Assay (LanthaScreen Eu Kinase Binding, TR-FRET)
Procedure, shortened: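 Compound displacement measured by TR-FRET after 60 min at 22 °C, using Eu-based LanthaScreen binding technology. Ratiometric emission converted to percent of control, fitted to a 4-parameter logistic curve, with IC50 at 50 POC.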

[2] = biological target: His-tagged recombinant human MER cytoplasmic domain (Homo sapiens (Human), UniProt Q12866); assay: MER Enzyme Assay (LanthaScreen Eu Kinase Binding, TR-FRET)
Procedure, shortened: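 Percent of control, derived from ratiometric TR-FRET emission, was fitted to a 4-parameter logistic curve and IC50 taken at 50 POC. Binding was read after 60 min at 22 °C using Eu-based LanthaScreen technology and recombinant His-tagged MER cytoplasmic domain.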

[3] = biological target: GST-tagged recombinant human TYRO3 kinase domain (Homo sapiens (Human), UniProt Q06418); assay: TYRO3 Enzyme Assay (LanthaScreen Eu Kinase Binding, TR-FRET)
Procedure, shortened: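 LanthaScreen Eu binding (tracer displacement) format read by TR-FRET after 60 min at 22 °C. Emission ratio converted to percent of control; IC50 taken where a 4-parameter logistic fit crosses 50 POC.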

Sequence of GST-tagged recombinant human TYRO3 kinase domain (Q06418 518-790): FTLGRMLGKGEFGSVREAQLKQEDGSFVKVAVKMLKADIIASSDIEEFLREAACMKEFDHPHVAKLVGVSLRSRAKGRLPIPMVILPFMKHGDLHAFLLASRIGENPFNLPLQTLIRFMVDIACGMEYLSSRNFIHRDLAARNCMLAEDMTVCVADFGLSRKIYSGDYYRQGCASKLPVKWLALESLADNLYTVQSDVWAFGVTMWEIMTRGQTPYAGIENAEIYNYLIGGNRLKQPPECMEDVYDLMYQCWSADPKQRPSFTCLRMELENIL
Sequence of His-tagged recombinant human MER cytoplasmic domain (Q12866 527-999): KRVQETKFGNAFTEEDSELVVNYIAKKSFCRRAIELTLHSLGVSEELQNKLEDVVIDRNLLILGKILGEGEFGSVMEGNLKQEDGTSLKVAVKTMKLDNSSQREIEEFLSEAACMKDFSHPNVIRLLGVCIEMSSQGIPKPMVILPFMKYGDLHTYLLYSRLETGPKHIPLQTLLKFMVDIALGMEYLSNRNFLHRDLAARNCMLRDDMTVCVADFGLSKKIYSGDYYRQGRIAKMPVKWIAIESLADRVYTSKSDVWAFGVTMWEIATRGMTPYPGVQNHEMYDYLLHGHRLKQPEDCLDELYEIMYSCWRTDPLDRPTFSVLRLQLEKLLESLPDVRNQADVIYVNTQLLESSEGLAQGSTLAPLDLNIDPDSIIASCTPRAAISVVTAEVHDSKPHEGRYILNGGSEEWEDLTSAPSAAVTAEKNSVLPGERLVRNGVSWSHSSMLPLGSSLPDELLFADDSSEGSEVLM
Sequence of His-tagged recombinant human AXL cytoplasmic domain (P30530 473-894): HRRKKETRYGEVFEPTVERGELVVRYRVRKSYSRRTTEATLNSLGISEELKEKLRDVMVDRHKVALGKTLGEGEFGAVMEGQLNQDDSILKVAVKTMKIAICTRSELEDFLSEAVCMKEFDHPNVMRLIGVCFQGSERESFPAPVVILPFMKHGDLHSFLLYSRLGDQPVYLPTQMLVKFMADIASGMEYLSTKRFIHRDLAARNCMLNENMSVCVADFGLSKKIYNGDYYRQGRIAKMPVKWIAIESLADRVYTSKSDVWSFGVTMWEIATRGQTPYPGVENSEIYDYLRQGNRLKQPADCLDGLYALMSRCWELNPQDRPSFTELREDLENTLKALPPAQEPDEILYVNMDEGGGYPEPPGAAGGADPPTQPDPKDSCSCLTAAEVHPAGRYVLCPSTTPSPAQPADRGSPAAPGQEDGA

IC50 [1] [nM]	IC50 [2] [nM]	IC50 [3] [nM]	Structure (SMILES)
< 10	< 10	10 to 100	CCNc1cc2c(cn1)c(C1CCN(C(C)C)CC1)nn2[C@H]1CC[C@@H](Oc2nccc(C(F)(F)F)c2F)CC1 [Example 326, N-ethyl-1-((1s,4s)-4-((3-fluoro-4-(trifluoromethyl)pyridin-2-yl)oxy)cyclohexyl)-3-(1-isopropylpiperidin-4-yl)-1H-pyrazolo[4,3-c]pyridin-6-amine]
< 10	< 10	10 to 100	CNc1cc2c(cn1)c(-c1cnn(C)c1)nn2[C@H]1CC[C@@H](Oc2nccc(C(F)(F)F)c2F)CC1 [Example 173, 1-((1s,4s)-4-((3-fluoro-4-(trifluoromethyl)pyridin-2-yl)oxy)cyclohexyl)-N-methyl-3-(1-methyl-1H-pyrazol-4-yl)-1H-pyrazolo[4,3-c]pyridin-6-amine]
< 10	< 10	10 to 100	CCNc1cc2c(cn1)c(-c1cnn(CC(C)(C)O)c1)nn2[C@H]1CC[C@@H](Oc2nccc(C(F)(F)F)c2F)CC1 [Example 300, 1-(4-(6-(ethylamino)-1-((1s,4s)-4-((3-fluoro-4-(trifluoromethyl)pyridin-2-yl)oxy)cyclohexyl)-1H-pyrazolo[4,3-c]pyridin-3-yl)-1H-pyrazol-1-yl)-2-methylpropan-2-ol]
< 10	< 10	< 10	CCNc1cc2c(cn1)c(-c1cnn(C[C@H](O)C(C)(C)O)c1)nn2[C@H]1CC[C@@H](Oc2cccc(F)c2F)CC1 [Example 445, (S)-1-(4-(1-((1s,4R)-4-(2,3-difluorophenoxy)cyclohexyl)-6-(ethylamino)-1H-pyrazolo[4,3-c]pyridin-3-yl)-1H-pyrazol-1-yl)-3-methylbutane-2,3-diol]
< 10	< 10	10 to 100	CNc1cc2c(cn1)c(-c1cnn(C)c1)nn2[C@@H]1CC[C@H](Oc2ccccc2)[C@@H](O)C1 [Example 471A, (1S,2S,5R)-5-(3-(1-methyl-1H-pyrazol-4-yl)-6-(methylamino)-1H-pyrazolo[4,3-c]pyridin-1-yl)-2-phenoxycyclohexan-1-ol]
< 10	< 10	10 to 100	CCNc1cc2c(cn1)c(-c1cnn(C[C@@H](O)C(C)(C)O)c1)nn2[C@H]1CC[C@@H](Oc2ccccc2F)CC1 [Example 442, (R)-1-(4-(6-(ethylamino)-1-((1s,4S)-4-(2-fluorophenoxy)cyclohexyl)-1H-pyrazolo[4,3-c]pyridin-3-yl)-1H-pyrazol-1-yl)-3-methylbutane-2,3-diol]
< 10	< 10	10 to 100	CCNc1cc2c(cn1)c(-c1cnn([C@H]3CC[C@H](O)CC3)c1)nn2[C@H]1CC[C@@H](Oc2nccc(C(F)(F)F)c2F)CC1 [Example 272, (1R,4r)-4-(4-(6-(ethylamino)-1-((1s,4S)-4-((3-fluoro-4-(trifluoromethyl)pyridin-2-yl)oxy)cyclohexyl)-1H-pyrazolo[4,3-c]pyridin-3-yl)-1H-pyrazol-1-yl)cyclohexan-1-ol]
< 10	< 10	< 10	CCNc1cc2c(cn1)c(-c1ccc3c(c1)CNC3=O)nn2[C@H]1CC[C@@H](Oc2cn(C)nc2C(F)(F)F)CC1 [Example 287]
< 10	< 10	< 10	CCNc1cc2c(cn1)c(-c1cnn(C[C@@H](O)CO)c1)nn2[C@H]1CC[C@@H](Oc2nccc(C#N)c2F)CC1 [Example 487, 2-(((1S,4s)-4-(3-(1-((R)-2,3-dihydroxypropyl)-1H-pyrazol-4-yl)-6-(ethylamino)-1H-pyrazolo[4,3-c]pyridin-1-yl)cyclohexyl)oxy)-3-fluoroisonicotinonitrile]
< 10	< 10	10 to 100	CNc1cc2c(cn1)c(-c1cnn(C)c1)nn2[C@H]1CC[C@@H](Oc2ccccc2S(C)(=O)=O)CC1 [Example 375, N-methyl-3-(1-methyl-1H-pyrazol-4-yl)-1-((1s,4s)-4-(2-(methylsulfonyl)phenoxy)cyclohexyl)-1H-pyrazolo[4,3-c]pyridin-6-amine]
< 10	< 10	< 10	CNc1cc2c(cn1)c(-c1cnn(C(C)(C)C#N)c1)nn2[C@H]1CC[C@@H](Oc2cccnc2C(F)(F)F)CC1 [Example 160, 2-methyl-2-(4-(6-(methylamino)-1-((1s,4s)-4-((2-(trifluoromethyl)pyridin-3-yl)oxy)cyclohexyl)-1H-pyrazolo[4,3-c]pyridin-3-yl)-1H-pyrazol-1-yl)propanenitrile]
< 10	< 10	10 to 100	CCNc1cc2c(cn1)c(N1CC[C@@H](O)C1)nn2[C@H]1CC[C@@H](Oc2nccc(C(F)(F)F)c2F)CC1 [Example 488, (R)-1-(6-(ethylamino)-1-((1s,4S)-4-((3-fluoro-4-(trifluoromethyl)pyridin-2-yl)oxy)cyclohexyl)-1H-pyrazolo[4,3-c]pyridin-3-yl)pyrrolidin-3-ol]
< 10	< 10	10 to 100	CCNc1cc2c(cn1)c(N1CCC(NC)CC1)nn2[C@H]1CC[C@@H](Oc2nccc(C(F)(F)F)c2F)CC1 [Example 344, N-ethyl-1-((1s,4s)-4((3-fluoro-4-(trifluoromethyl)pyridin-2-yl)oxy)cyclohexyl)-3-(4-(methylamino)piperidin-1-yl)-1H-pyrazolo[4,3-c]pyridin-6-amine]
< 10	< 10	10 to 100	CCNc1cc2c(cn1)c(-c1cnn(C)c1)nn2[C@H]1CC[C@@H](Oc2cccc(F)c2F)CC1 [Example 374, 1-((1s,4s)-4-(2,3-difluorophenoxy)cyclohexyl)-N-ethyl-3-(1-methyl-1H-pyrazol-4-yl)-1H-pyrazolo[4,3-c]pyridin-6-amine]
< 10	< 10	< 10	CNc1cc2c(cn1)c(-c1cnn(C)c1)nn2[C@H]1CC[C@@H](Oc2cccnc2C#N)CC1 [Example 140, 3-(((1s,4s)-4-(3-(1-methyl-1H-pyrazol-4-yl)-6-(methylamino)-1H-pyrazolo[4,3-c]pyridin-1-yl)cyclohexyl)oxy)picolinonitrile]
< 10	< 10	10 to 100	CCNc1cc2c(cn1)c(N1CCC(N(C)C)CC1)nn2[C@H]1CC[C@@H](Oc2nccc(C(F)(F)F)c2F)CC1 [Example 345, 3-(4-(dimethylamino)piperidin-1-yl)-N-ethyl-1-((1s,4s)-4-((3-fluoro-4-(trifluoromethyl)pyridin-2-yl)oxy)cyclohexyl)-1H-pyrazolo[4,3-c]pyridin-6-amine]
< 10	< 10	10 to 100	CCNc1cc2c(cn1)c(-c1cnn(C[C@@H](O)CO)c1)nn2[C@H]1CC[C@@H](Oc2cccc(F)c2Cl)CC1 [Example 437, (R)-3-(4-(1-((1s,4S)-4-(2-chloro-3-fluorophenoxy)cyclohexyl)-6-(ethylamino)-1H-pyrazolo[4,3-c]pyridin-3-yl)-1H-pyrazol-1-yl)propane-1,2-diol]
< 10	< 10	100 to 1000	CCNc1cc2c(cn1)c(-c1cnn(C(C)(C)C#N)c1)nn2[C@H]1CC[C@@H](Oc2nccc(C(F)(F)F)c2F)CC1 [Example 260, 2-(4-(6-(ethylamino)-1-((1s,4s)-4-((3-fluoro-4-(trifluoromethyl)pyridin-2-yl)oxy)cyclohexyl)-1H-pyrazolo[4,3-c]pyridin-3-yl)-1H-pyrazol-1-yl)-2-methylpropanenitrile]

Source: US11247990B1, “Bicyclic fused pyridine compounds as inhibitors of TAM kinases” (ARRAY BIOPHARMA INC., priority 2017, dated 2022)
